Laboratory results as given in patent US11679123B2, “N-acylated hyaluronic acid for hyperuricemia and gouty arthritis” (Queen's University at Kingston, priority 2018, dated 2023).

Experiments:
[1] = system: creatinine (Cr) and blood urea nitrogen (BUN); assay: Cr and urea nitrogen in serum and liver of hyperuricemic mice (renal function); assay type: in vivo, Balb/C mice; details: for lowering of Cr in the serum / lowering of urea nitrogen in the liver: BHA, P<0.05
Experimental: (§1) Due to the presence of uricase in mice, a hyperuricemic mouse model was established by using uricase inhibitor and large amounts of purine. Mice were randomly divided into five groups (n=10), including the control group (NC), model group (MC), 20 mg/kg of AL (Shimao Tianjie Pharmaceutical Co. Ltd, Jiangsu, China) group, 10 μg BHA group (10BHA) and 50 μg BHA group (50BHA). Oral administration of AL and intraperitoneal injection of BHA were administered according to the required dose, and all mice were gavage fed 20 g/kg yeast extract powder 12 h prior to the administration of AL and BHA except for NC mice for 8 days. From the 6th to 8th day, 1-h prior to AL and BHA administration, 300 mg/kg of OXO (Sigma, USA) was intraperitoneally injected to all of the mice except those in the control group. At 1 h after the final drug administration, blood was sampled from caudal veins of the mice, serum was separated and their livers were quickly collected (FIG. 3A, E). All samples were stored at −80° C. until assay measurements were performed.
(§2) The levels of reactive oxygen species (ROS, 43355), malondialdehyde (MDA, 43124) glutathione peroxidase (GSH-Px, 43390), superoxide dismutase (SOD, 43125), catalase (CAT, 43356), creatinine (Cr, 43353) and blood urea nitrogen (BUN, 43352) in the serum and livers of mice were determined using ELISA Kits (Yuanye Bio-Technology Co. Ltd, Shanghai, China) according to the manufacturer's instructions.

[2] = system: rats with MSU-induced acute gout; assay: MSU crystal-induced acute gout in rats: ankle swelling ratio; assay type: in vivo, Wistar rats; details: P<0.01; for ankle swelling in comparison with the MSU treated group: at 4 h, 12 h and 48 h
Experimental: Male Wistar rats (n=50, 8 weeks: 160-200 g) were purchased from Liaoning Changsheng Biotechnology Company Ltd, Jilin, China (SCXK (Liao)-2015-0001). These rats were housed in plastic cages and maintained on a 12-h light/12-h dark cycle (lights on 7:00-19:00 h) under standard laboratory conditions of 55% relative humidity and at 23° C.±1° C. They were given standard chow (Liaoning Changsheng Biotechnology Company Ltd, Jilin, China) and tap water ad libitum. All experimental procedures were approved by the Animal Ethics Committee of Jilin University (Reference NO. 201605).
An experimental model of MSU-induced gouty arthritis was used in order to evaluate the anti-inflammatory activities of BHA. Rats were randomly divided into five groups (n=10), include a control group (NC), a model group (MC), a 0.3 mg/kg colchicine group (COL), a 10 μg BHA group (10BHA) and a 50 μg BHA group (50BHA). MSU crystals were suspended in 0.9% sterile saline (30 mg/mL) prior to use. The colchicine group rats were orally administrated colchicine (0.3 mg/kg) for 8 days, and all rats except for the control group were injected with 3 mg of MSU (Sigma, USA) at the 6th day into the right ankle synovial space 1 h after gavage feeding. Meanwhile a turbid sample of MSU mixed with 100 μg of BHA or 500 μg of BHA per mL of solution for 10BHA rats or 50BHA rats. At the 8th day, 1 h after the administration of the final agents, blood was sampled from the caudal veins of the rats and the right ankle joints of the rats were collected and fixed in 4% paraformaldehyde. Serum was separated and stored at −80° C. prior to analysis (FIG. 2A, E).
The right ankle circumferences of all rats at 0, 4, 12, 24 and 48 h after MSU injection were measured. The swelling ratio (%) was used to evaluate the gouty arthritis and calculated according to the change of the circumference via the formula: Swelling ratio (%)=(Ct−C0)/C0, wherein, Ct represented the circumference at time t (in h) and C0 represented the circumference at 0 h.

[3] = system: inflammatory cell infiltration in the synovium; assay: Histopathological assessment of ankle joint synovium (H&E) in MSU crystal-injected rats; assay type: in vivo, Wistar rats
Experimental: In one study, a histopathological assessment was conducted of synovium in ankle joints of rats after H&E staining. The right ankles of […] were excised and fixed in 4% paraformaldehyde, and subsequently decalcified using 10% ethylenediaminetetraacetic acid. They were then dehydrated via processing in alcohol/xylene mixtures with different proportions and concentrations. The histological sections were stained with hematoxylin and eosin. The histopathological changes of the joint synovium were assessed for the degree of inflammatory cell infiltrate, by an experienced histopathologist. Microscopy at magnifications of 40×, 100×, 200× and 400× were investigated for typical areas for each of the five groups.
The right ankles of rats were collected and fixed in 4% paraformaldehyde, and subsequently decalcified using 10% ethylenediaminetetraacetic acid. They were then dehydrated by processing in alcohol/xylene mixtures with different proportions and concentrations. The histological sections were later stained with hematoxylin and eosin for observation under an optical microscope (200×). The histopathological changes were analyzed with regard to deformaties of the joint synovium and infiltration by inflammatory cells into the ankle.

hyperuricemic mice = assay: Serum UA in OXO- and yeast extract-induced hyperuricemic mice; assay type: in vivo, Balb/C mice; details: BHA (10 μg and 50 μg intraperitoneal), P<0.05
Experimental: Male Balb/C mice (n=50, 8 weeks: 18-22 g), purchased from Yisi Experimental Animal Technology Company Ltd, Jilin, China (SCXK (Ji)-2016-0003). These mice were housed in plastic cages and maintained on a 12-h light/12-h dark cycle (lights on 7:00-19:00 h) under standard laboratory conditions of 55% relative humidity and 23±1° C. They were given standard feed and tap water ad libitum. All experimental procedures were approved by the Animal Ethics Committee of Jilin University (Reference NO. 201605).
Due to the presence of uricase in mice, a hyperuricemic mouse model was established by using uricase inhibitor and large amounts of purine. Mice were randomly divided into five groups (n=10), including the control group (NC), model group (MC), 20 mg/kg of AL (Shimao Tianjie Pharmaceutical Co. Ltd, Jiangsu, China) group, 10 μg BHA group (10BHA) and 50 μg BHA group (50BHA). Oral administration of AL and intraperitoneal injection of BHA were administered according to the required dose, and all mice were gavage fed 20 g/kg yeast extract powder 12 h prior to the administration of AL and BHA except for NC mice for 8 days. […]
The serum UA concentrations and XO levels in the serum and liver were determined with a standard diagnostic kit (MAK077, MAK078 Sigma, USA) according to the manufacturer's instructions.

[4] = system: factors related to oxidative stress; assay: Factors related to oxidative stress in serum and liver of hyperuricemia mice (ELISA); assay type: in vivo, Balb/C mice; details: for Liver CAT / Liver GSH-PX / Liver MDA / Liver ROS / Liver SOD / Serum CAT / Serum GSH-PX / Serum MDA / Serum ROS / Serum SOD: hyperuricemia mice, mean ± S.D., n=10
Experimental: as §1, §2

[5] = 10 μg BHA intraperitoneal (10BHA)
[6] = 50 μg BHA intraperitoneal (50BHA)

**Q.** What does the source list for N-butyrylated HA [BHA]?
**A.** lowering of Cr in the liver ([1]; 10 μg BHA, P<0.01): 8.14%; lowering of Cr in the serum ([1]; second value listed (10 μg)): 8.21%; lowering of urea nitrogen in the liver ([1]; second value listed (10 μg)): 11.65%; lowering of Cr in the serum ([1]; third value listed (50 μg)): 12.02%; lowering of urea nitrogen in the liver ([1]; third value listed (50 μg)): 12.81%; swelling ratio reduction ([2]; 10 μg BHA, at 12 h (best suppression)): 11.0%; swelling ratio reduction ([2]; 50 μg BHA, at 48 h (best suppression)): 9.5%; ankle swelling in comparison with the MSU treated group ([2]; BHA 10 μg): suppressed the ankle swelling; ankle swelling in comparison with the MSU treated group ([2]; BHA 50 μg): suppressed the ankle swelling; pathological changes (inflammatory cell infiltration) in synovium ([3]; 10 μg of BHA, MSU crystal-injected rats, H&E): partially prevented the pathological changes; attenuation of inflammatory cell infiltration in synovium ([3]; higher dose BHA (50BHA, 50 μg)): not as effective as the 10BHA dose; serum UA levels (hyperuricemic mice): significantly suppressed serum UA levels; decrease of ROS levels in the liver ([4]; 10 μg BHA, P<0.01): 8.04%; decrease of ROS levels in the serum ([4]; 10 μg BHA, P<0.01): 14.87%; improvement of liver SOD ([4]; 10 μg BHA, P<0.05): 12.77%; decrease of ROS levels in the liver ([4]; 50 μg BHA, P<0.05): 9.59%; decrease of ROS levels in the serum ([4]; 50 μg BHA, P<0.05): 14.63%; improvement of liver SOD ([4]; 50 μg BHA, P<0.05): 13.69%; Liver CAT [4, 5]: 13.1 ± 1.4 U/mg; Liver GSH-PX [4, 5]: 78.8 ± 8^ U/mg; Liver MDA [4, 5]: 3.4 ± 0.2 nmol/mg; Liver ROS [4, 5]: 70.8 ± 3.7 U/mg; Liver SOD [4, 5]: 56.8 ± 5.8 U/mg; Serum CAT [4, 5]: 43.3 ± 4.6 U/mL; Serum GSH-PX [4, 5]: 246.8 ± 10.2 U/mL; Serum MDA [4, 5]: 10.4 ± 0.5 nmol/mL; Serum ROS [4, 5]: 226.6 ± 17.9 U/mL; Serum SOD [4, 5]: 166.6 ± 11.8 U/mL; Liver CAT [4, 6]: 14.1 ± 1.5 U/mg; Liver GSH-PX [4, 6]: 77.9 ± 7.3 U/mg; Liver MDA [4, 6]: 3.5 ± 0.2 nmol/mg; Liver ROS [4, 6]: 69.6 ± 7.1 U/mg; Liver SOD [4, 6]: 57.2 ± 4.4 U/mg; Serum CAT [4, 6]: 41.5 ± 6^ U/mL; Serum GSH-PX [4, 6]: 231.4 ± 13.3 U/mL; Serum MDA [4, 6]: 10.5 ± 0.3 nmol/mL; Serum ROS [4, 6]: 227.2 ± 17.9 U/mL; Serum SOD [4, 6]: 161.2 ± 8 U/mL
